For 24 molecules, IC50 results are on record in patent US8148404B2, “Modulators of CB1 receptors” (7TM Pharma A/S, priority 2006, dated 2012).

Broadly, the IC50 is the concentration that inhibits the measured activity by half.

A value given as a limit tells only on which side of the number the result lay.

The target of the test is T1, human CB1 receptor (Homo sapiens, UniProt P21554).
T1 construct: expressed in transfected cells; membranes used
T1 sequence (P21554 whole entry): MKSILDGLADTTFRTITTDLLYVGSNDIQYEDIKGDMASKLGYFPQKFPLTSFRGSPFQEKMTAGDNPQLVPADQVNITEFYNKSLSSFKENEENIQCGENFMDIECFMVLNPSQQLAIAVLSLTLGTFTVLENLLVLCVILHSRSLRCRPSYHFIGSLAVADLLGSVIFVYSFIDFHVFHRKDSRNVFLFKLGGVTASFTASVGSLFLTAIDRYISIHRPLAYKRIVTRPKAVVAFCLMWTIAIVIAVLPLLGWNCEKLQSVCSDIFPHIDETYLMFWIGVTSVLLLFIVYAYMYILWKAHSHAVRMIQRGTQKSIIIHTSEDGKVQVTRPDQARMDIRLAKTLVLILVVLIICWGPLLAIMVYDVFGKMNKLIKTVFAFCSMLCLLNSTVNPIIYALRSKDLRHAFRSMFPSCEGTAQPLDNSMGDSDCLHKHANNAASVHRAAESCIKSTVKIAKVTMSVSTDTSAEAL
As to the kind of experiment: Cannabinoid Receptor-1 functional assay: inhibition of CP55940-induced [35S]GTPγS binding to membranes of CHO-K1 cells expressing human CB1. Type of test: biochemical. The following applies: 3 nM CP55940, [35S]GTPγS SPA, hCB1 membranes; read-out: IC50 value for antagonizing a CB1 receptor agonist. From the text: Transfection and Cell Culture—The cDNA encoding the human CB1 (Cannabinoid Receptor-1) receptor (GenBank accession number NM_016083) was cloned from a human adipose tissue cDNA library and cloned into the eukaryotic expression vector pcDNA3.1 (Invitrogen).
Chinese Hamster Ovary cells (CHO-K1) stably expressing recombinant human CB1 were generated by transfecting the plasmid containing the coding sequence of the human CB1 receptor in CHO-K1 cells, using lipofectamin, according to the manufacturer instructions. Resistant clones were selected in the presence of 600 μg/ml G418 (Life technology). Stably transfected CHO-K1 cells were maintained in Ham's F-12 culture medium (Invitrogen), supplemented with 10% fetal calf serum (Invitrogen), 100 U/ml penicillin, 100 μg/ml streptomycin (Life Technology), and 600 μg/ml G418.
Functional activities of the above examples of compounds of the invention were assessed in vitro by measuring their ability to inhibit CP55940-induced [^35S]GTPγS binding to membranes prepared from CHO-K1 cells expressing the human CB1 receptor (described in Transfection and Cell Culture). CP55940 is a well known non-selective CB1 and CB2 receptor agonist (e.g Felder et al., 1995, Molecular Pharmacology, (48) 443-50). Membranes were prepared by a standard procedure. Briefly, cells were harvested using 10 mM EDTA and collected by centrifugation. Pelleted cells were homogenized in ice-cold 20 mM Hepes (pH 7.4), 10 mM EDTA and protease inhibitors (Complete protease inhibitor cocktail tablet, Roche) using an Ultra Turrax Homogenizer. The homogenate was centrifuged at 14 000 rpm for 45 min. at 4° C. The resultant pellet was resuspended in the same buffer but with only 0.1 mM EDTA and was again centrifuged at 14 000 rpm for 45 min. at 4° C. The resulting pellet (membranes) was resuspended in 20 mM Hepes (pH 7.4), 0.1 mM EDTA, 2 mM MgCl2 and protease inhibitors and protein concentration was determined by Micro BCA Protein Assay Reagent Kit (Pierce Biotechnology) according to the manufacturer instructions. The [^35S]GTPγS SPA (Scintillation Proximity Assay) binding assay was performed by incubating 5 μg/well hCB1-membranes with 1 nM [^35S]GTPγS (Perkin Elmer—NEG 030H) in the presence of 3 nM of CP55940 and various concentrations of the test compounds at room temperature for 1 hr in 96-well microtiter plates. 0.4 mg/well SPA beads (PVT-WGA; RPNQ0001 Amersham Pharmacia Biotech) were then added and the incubation continued for further 30 min. on an orbital shaker. The assay buffer contained 50 mM HEPES (pH 7.5), 50 mM NaCl, 2.5 mM MgCl2, 0.1% BSA, 1 μM GDP and 100 μg/ml Saponin. Microtiter plates were centrifuged at 1500 rpm for 5 min. and radioactivity was read immediately using a Topcounter (PerkinElmer Life Sciences). Data were analyzed and IC50 values determined by non-linear regression using the Prism software (GraphPad Software, San Diego).
(Binding of GTPγS marks nucleotide exchange on a G protein.)
With `O=C(c1nn(-c2ccccc2Cl)c(-c2ccc(Cl)cc2)c1Cc1nn[nH]n1)N1CCC(c2ccc(F)cc2)CC1` [[3.3], [1-(2-Chloro-phenyl)-5-(4-chloro-phenyl)-4-(2H-tetrazol-5-ylmethyl)-1H-pyrazol-3-yl]-[4-(4-fluoro-phenyl)-piperidin-1-yl]-methanone], the IC50 was below 300 nM.
In the case of `O=C(O)Cc1c(C(=O)N2CCC(O)(Cc3ccccc3)CC2)nn(-c2ccccc2Cl)c1-c1ccc(Cl)cc1` [[1.6], [3-(4-Benzyl-4-hydroxy-piperidine-1-carbonyl)-5-(4-chloro-phenyl)-1-(2-chloro-phenyl)-1H-pyrazol-4-yl]-acetic acid], the IC50 is below 300 nM.
In the case of `O=C(O)Cc1c(C(=O)N2CCC(c3cccs3)CC2)nn(-c2ccccc2Cl)c1-c1ccc(Cl)cc1` [[1.23], [5-(4-Chloro-phenyl)-1-(2-chloro-phenyl)-3-(4-thiophen-2-yl-piperidine-1-carbonyl)-1H-pyrazol-4-yl]-acetic acid] it was below 300 nM.
To `O=C(O)Cc1c(C(=O)N2CCOCC2)nn(-c2ccccc2Cl)c1-c1ccc(Cl)cc1` [[1.48], [1-(2-Chloro-phenyl)-5-(4-chloro-phenyl)-3-(morpholine-4-carbonyl)-1H-pyrazol-4-yl]-acetic acid] belongs 3000 to 10000 nM.
As for `O=C(O)Cc1c(C(=O)N2CCC(c3cc(F)cc(F)c3)CC2)nn(-c2ccccc2Cl)c1-c1ccc(Cl)cc1` [[1.36], {1-(2-Chloro-phenyl)-5-(4-chloro-phenyl)-3-[4-(3,5-difluoro-phenyl)-piperidine-1-carbonyl]-1H-pyrazol-4-yl}-acetic acid], the IC50 is below 300 nM.
In the case of `O=C(O)Cc1c(C(=O)N2CCC(O)(c3cccnc3)CC2)nn(-c2ccccc2Cl)c1-c1ccc(Cl)cc1` [Compound [1.8], [1-(2-Chloro-phenyl)-5-(4-chloro-phenyl)-3-(4′-hydroxy-3′,4′,5′,6′-tetrahydro-2′H-[3,4′]bipyridinyl-1′-carbonyl)-1H-pyrazol-4yl]-acetic acid], the IC50 was 3000 to 10000 nM.
On to `O=C(c1nn(-c2ccccc2F)c(-c2ccc(Cl)cc2)c1Cc1nn[nH]n1)N1CCC(c2ccccc2F)CC1` [[4.2], [1-(2-Fluoro-phenyl)-5-(4-chloro-phenyl)-4-(2H-tetrazol-5-ylmethyl)-1H-pyrazol-3-yl]-[4-(2-fluoro-phenyl)-piperidin-1-yl]-methanone], for which the IC50 was below 300 nM.
Consider `COc1cccc(C2CCN(C(=O)c3nn(-c4ccccc4Cl)c(-c4ccc(Cl)cc4)c3CC(=O)O)CC2)c1` [[1.37], {1-(2-Chloro-phenyl)-5-(4-chloro-phenyl)-3-[4-(3-methoxy-phenyl)-piperidine-1-carbonyl]-1H-pyrazol-4-yl}-acetic acid], for which the IC50 is below 300 nM.
As for `O=C(O)Cc1c(C(=O)N2CCC(Oc3ccccc3)CC2)nn(-c2ccccc2Cl)c1-c1ccc(Cl)cc1` [[1.58]], the IC50 was below 300 nM.
On to `O=C(O)Cc1c(C(=O)N2CCC(c3cccc(C(F)(F)F)c3)CC2)nn(-c2ccccc2Cl)c1-c1ccc(Cl)cc1` [[1.40], {1-(2-Chloro-phenyl)-5-(4-chloro-phenyl)-3-[4-(3-trifluoromethyl-phenyl)-piperidine-1-carbonyl]-1H-pyrazol-4-yl}-acetic acid], for which the IC50 is below 300 nM.
In the case of `O=C(O)Cc1c(C(=O)N2CCC(O)(c3ccccc3F)CC2)nn(-c2ccccc2Cl)c1-c1ccc(Cl)cc1` [[1.21], {1-(2-Chloro-phenyl)-5-(4-chloro-phenyl)-3-[4-(2-fluoro-phenyl)-4-hydroxy-piperidine-1carbonyl]-1H-pyrazol-4-yl}-acetic acid] it was below 300 nM; in that of `O=C(O)Cc1c(C(=O)N2CCN(c3ccccc3)CC2)nn(-c2ccccc2Cl)c1-c1ccc(Cl)cc1` [Compound [1.2], [1-(2-Chloro-phenyl)-5-(4-chloro-phenyl)-3-(4-phenyl-piperazine-1-carbonyl)-1H-pyrazol-4-yl]-acetic acid], 300 to 3000 nM.
Take `O=C(O)Cc1c(C(=O)N2CCC(c3ccccc3)CC2)nn(-c2ccccc2Cl)c1-c1ccc(Cl)cc1` [[1.33], [1-(2-Chloro-phenyl)-5-(4-chloro-phenyl)-3-(4-phenyl-piperidine-1-carbonyl)-1H-pyrazol-4-yl]-acetic acid]: the IC50 is below 300 nM.
For the molecule `O=C(O)Cc1c(C(=O)N2CCC(Oc3cccc(F)c3)CC2)nn(-c2ccccc2Cl)c1-c1ccc(Cl)cc1` [[1.62], {1-(2-Chloro-phenyl)-5-(4-chloro-phenyl)-3-[4-(3-fluorophenoxy)-piperidine-1-carbonyl]-1H-pyrazol-4-yl}-acetic acid], the IC50 is below 300 nM.
Regarding `O=C(O)Cc1c(C(=O)N2CC=C(c3ccccc3)CC2)nn(-c2ccccc2Cl)c1-c1ccc(Cl)cc1` [Compound [1.1], [1-(2-Chloro-phenyl)-5-(4-chloro-phenyl)-3-(4-phenyl-3,6-dihydro-2H-pyridine-1-carbonyl)-1H-pyrazol-4-yl]-acetic acid], the IC50 is below 300 nM.
In the case of `O=C(c1nn(-c2ccccc2Cl)c(-c2ccc(Cl)cc2)c1Cc1nn[nH]n1)N1CCC(Oc2cccc(F)c2)CC1` [[3.9], [1-(2-Chloro-phenyl)-5-(4-chloro-phenyl)-4-(2H-tetrazol-5-ylmethyl)-1H-pyrazol-3-yl]-[4-(3-fluorophenoxy)-piperidin-1-yl]-methanone] it was below 300 nM; in that of `O=C(O)Cc1c(C(=O)N2CCC(c3ccc(C(F)(F)F)cc3)CC2)nn(-c2ccccc2Cl)c1-c1ccc(Cl)cc1` [[1.28], {1-(2-Chloro-phenyl)-5-(4-chloro-phenyl)-3-[4-(4-trifluoromethyl-phenyl)-piperidine-1-carbonyl]-1H-pyrazol-4-yl}-acetic acid], below 300 nM; in that of `O=C(O)Cc1c(C(=O)N2CCC(O)(c3cccc(F)c3F)CC2)nn(-c2ccccc2Cl)c1-c1ccc(Cl)cc1` [[1.25], {5-(4-Chloro-phenyl)-1-(2-chloro-phenyl)-3-[4-(2,3-difluoro-phenyl)-4-hydroxy-piperidine-1-carbonyl]-1H-pyrazol-4yl}-acetic acid], below 300 nM.
In the case of `N#Cc1cccc(C2CCN(C(=O)c3nn(-c4ccccc4Cl)c(-c4ccc(Cl)cc4)c3CC(=O)O)CC2)c1` [[1.34], {1-(2-Chloro-phenyl)-5-(4-chloro-phenyl)-3-[4-(3-cyano-phenyl)-piperidine-1-carbonyl]-1H-pyrazol-4-yl}-acetic acid], the IC50 is below 300 nM.
To `O=C(O)Cc1c(C(=O)N2CCC(c3cccc(Cl)c3)CC2)nn(-c2ccccc2Cl)c1-c1ccc(Cl)cc1` [[1.31], {1-(2-Chloro-phenyl)-5-(4-chloro-phenyl)-3-[4-(3-chloro-phenyl)-piperidine-1-carbonyl]-1H-pyrazol-4-yl}-acetic acid] belongs below 300 nM; to `O=C(c1nn(-c2ccccc2Cl)c(-c2ccc(Cl)cc2)c1Cc1nn[nH]n1)N1CCC(c2ccccc2F)CC1` [[3.4], [1-(2-Chloro-phenyl)-5-(4-chloro-phenyl)-4-(2H-tetrazol-5-ylmethyl)-1H-pyrazol-3-yl]-[4-(2-fluoro-phenyl)-piperidin-1-yl]-methanone], below 300 nM; to `O=C(O)Cc1c(C(=O)N2CC[C@H](c3ccccc3)[C@@H](O)C2)nn(-c2ccccc2Cl)c1-c1ccc(Cl)cc1` [[1.44], [1-(2-Chloro-phenyl)-5-(4-chloro-phenyl)-3-((3R,4R)-3-hydroxy-4-phenyl-piperidine-1-carbonyl)-1H-pyrazol-4-yl]-acetic acid], 300 to 3000 nM.
As to `O=C(O)Cc1c(C(=O)N2CCC(Oc3ccc(F)cc3)C2)nn(-c2ccccc2Cl)c1-c1ccc(Cl)cc1` (stereo not drawn) [[1.64], {1-(2-Chloro-phenyl)-5-(4-chloro-phenyl)-3-[3-(4-fluorophenoxy)-pyrrolidine-1-carbonyl]-1H-pyrazol-4-yl}-acetic acid], the IC50 is below 300 nM.
In the case of `O=C(O)Cc1c(C(=O)N2CCCC2c2ccc(C(F)(F)F)cc2)nn(-c2ccccc2Cl)c1-c1ccc(Cl)cc1` (stereo not drawn) [[1.38], {1-(2-Chloro-phenyl)-5-(4-chloro-phenyl)-3-[2-(4-trifluoromethyl-phenyl)-pyrrolidine-1-carbonyl]-1H-pyrazol-4-yl}-acetic acid], the IC50 was below 300 nM.
